Assay results taken from patent US7803825B2, “Aminoalkylazole derivatives as histamine-3 antagonists” (Wyeth LLC, priority 2007, dated 2010).
Counter-ions that a name gives are not always drawn.

Molecular target: T1, histamine-3 (H3) receptor (Homo sapiens, UniProt Q9Y5N1)
T1 construct: expressed in transfected cells; host or cells: HEK293T
Assay: Methyl Histamine Binding in Human Histamine-3 Receptor Cell Line
Settings: membranes of stably transfected HEK293T cells, radioligand 1 nM, Ki from IC50 by Cheng-Prusoff
Method: Evaluation of Methyl Histamine Binding in Human Histamine-3 Receptor Cell Line
The affinity of test compounds for the histamine-3 (H3) receptor is evaluated in the following manner. Stably transfected HEK293T cells are grown in DMEM containing 10% heat inactivated FBS and G-418 (500 ug/ml). Cells are scraped from the plate, transferred to centrifuge tubes, washed one time in PBS by centrifugation in a Sorvall RT7 Plus centrifuge (2000 rpm 10 minutes, 4° C.). The resulting pellets are stored at 80° C. until ready for use. Cells are re-suspended in buffer (50 mM Tris pH=7.5) and placed in a Dounce homogenizer, douncing ten times to homogenize cells. The homogenate is spun down by centrifugation (Sorvall RT7 Plus, 1800 rpm 10 minutes, 4° C.). The supernatant is placed in a Corex tube and spun down by centrifugation (Sorvall RC 5c Plus, 17,000 rpm 20 minutes, 4° C.). The pellet is resuspended in buffer (50 mM Tris, pH 7.5). Protein concentration (ug/ul) is determined using the Micro-BCA Protein Determination. The binding assay is set up in a 96 well microtiter plate in a total volume of 250 uL. Non-specific binding is determined in the presence of 10 uM clobenpropit. The final radioligand concentration is 1 nM. The test compound is serially diluted using the Beckman Biomek2000 to a final approximate range of 100 uM to 100 pM. Membranes are suspended in buffer, homogenized in 2 bursts of ten seconds using a Vitris mechanical homogenizer set at power setting 5. Ten μg of membranes are added to each well. Following a one hour incubation at 30° C., the reaction is terminated by the addition of ice cold buffer and rapid filtration with a Packard Filtermate Harvester through a GF/B filter pre-soaked with 1% PEI for one hour. The plate is dried for one hour at 37° C. and 60 μL Microscint Scintillant is added to each well. The CPM per well is measured on a Packard Top Count NXT. Ki values are determined in nM. The Ki is calculated from the IC50 (i.e. the concentration of competing ligand which displaces 50% of the specific binding of the radioligand). CPM values are expressed as % specific binding and plotted vs compound concentration. A curve is fitted using a four-parameter logistic fit and the IC50 value is determined. The Ki is calculated from this using the Cheng-Prusoff equation: […]=IC50/1+(L/Kd) where L=concentration of free radioligand used in the assay, and Kd is the dissociation constant of the radioligand for the receptor. L is determined for each experiment by counting an aliquot of the diluted radioligand (corresponding to that added to each well) and the Kd has previously been determined under identical conditions for this cell line/radioligand.

T1 sequence (Q9Y5N1 whole entry): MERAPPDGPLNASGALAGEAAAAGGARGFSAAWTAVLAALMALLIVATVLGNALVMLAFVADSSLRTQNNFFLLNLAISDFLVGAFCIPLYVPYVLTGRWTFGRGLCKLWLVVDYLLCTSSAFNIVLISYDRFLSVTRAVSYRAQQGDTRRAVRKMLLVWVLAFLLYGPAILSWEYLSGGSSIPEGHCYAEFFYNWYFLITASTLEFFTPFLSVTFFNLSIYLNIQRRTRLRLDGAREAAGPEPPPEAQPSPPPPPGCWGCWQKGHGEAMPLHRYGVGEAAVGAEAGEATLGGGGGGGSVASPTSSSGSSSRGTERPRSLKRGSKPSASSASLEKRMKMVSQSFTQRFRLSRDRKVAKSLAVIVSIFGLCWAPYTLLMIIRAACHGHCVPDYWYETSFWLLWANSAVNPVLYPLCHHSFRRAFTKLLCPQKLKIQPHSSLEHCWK

c1ccc2c(c1)ncn2Cc1ccc(-c2nc(CN3CCCC3)co2)cc1 [Example 6B, 1-{4-[4-(Pyrrolidin-1-ylmethyl)-1,3-oxazol-2-yl]benzyl}-1H-benzimidazole Hydrochloride] and c1ccc2c(c1)ncn2Cc1ccc(-c2nc(CN3CCCCC3)co2)cc1 [Example 7, 1-{4-[4-(piperidin-1-ylmethyl)-1,3-oxazol-2-yl]benzyl}-1H-benzimidazole] cannot be ordered by Ki: at most 10 nM for the first, at most 10 nM for the second.

First: CN(C)Cc1coc(-c2ccc(Cn3cnc4ccccc43)cc2)n1 [Example 8]
Second: CCN(CC)Cc1coc(-c2ccc(Cn3cnc4ccccc43)cc2)n1 [Example 12, N-({2-[4-(1H-benzimidazol-1-ylmethyl)phenyl]-1,3-oxazol-4-yl}methyl)-N-ethylethanamine]
The Ki of the first is higher: 10.1 to 25 nM for the first, at most 10 nM for the second. The second binds more tightly here.

c1ccc2c(c1)ncn2Cc1ccc(-c2nc(CN3CCOCC3)co2)cc1 [Example 10, 1-{4-[4-(morpholin-4-ylmethyl)-1,3-oxazol-2-yl]benzyl}-1H-benzimidazole] and c1ccc2c(c1)ncn2-c1ccc(-c2nc(CN3CCOCC3)co2)cc1 [Example 40] cannot be ordered by Ki: over 100 nM for the first, over 100 nM for the second.

CN1CCN(Cc2coc(-c3ccc(Cn4cnc5ccccc54)cc3)n2)CC1 [Example 11] and CN1CCN(Cc2coc(-c3ccc(-n4cnc5ccccc54)cc3)n2)CC1 [Example 41, 1-(4-{4-[(4-methylpiperazin-1-yl)methyl]-1,3-oxazol-2-yl}phenyl)-1H-benzimidazole] cannot be ordered by Ki: over 100 nM for the first, over 100 nM for the second.

CC1CCCN1Cc1coc(-c2ccc(Cn3cnc4ccccc43)cc2)n1 (stereo not drawn) [Example 13, 1-(4-{4-[(2-methylpyrrolidin-1-yl)methyl]-1,3-oxazol-2-yl}benzyl)-1H-benzimidazole] and C[C@@H]1CCCN1Cc1coc(-c2ccc(Cn3cnc4ccccc43)cc2)n1 [Example 19, 1-[4-(4-{[(2R)-2-methylpyrrolidin-1-yl]methyl}-1,3-oxazol-2-yl)benzyl]-1H-benzimidazole] cannot be ordered by Ki: at most 10 nM for the first, at most 10 nM for the second.

First: c1ccc2c(c1)ncn2Cc1ccc(-c2nc(CN3CCCCCC3)co2)cc1 [Example 14, 1-{4-[4-(azepan-1-ylmethyl)-1,3-oxazol-2-yl]benzyl}-1H-benzimidazole]
Second: c1ccc2c(c1)ncn2-c1ccc(-c2nc(CN3CCCCCC3)co2)cc1 [Example 44, 1-{4-[4-(azepan-1-ylmethyl)-1,3-oxazol-2-yl]phenyl}-1H-benzimidazole]
The Ki of the first is lower: at most 10 nM for the first, 25.1 to 50 nM for the second.

First: CC1CCCCN1Cc1coc(-c2ccc(Cn3cnc4ccccc43)cc2)n1 (stereo not drawn) [Example 15, 1-(4-{4-[(2-methylpiperidin-1-yl)methyl]-1,3-oxazol-2-yl}benzyl)-1H-benzimidazole]
Second: C[C@H]1CCCN1Cc1coc(-c2ccc(Cn3cnc4ccccc43)cc2)n1 [Example 20, 1-[4-(4-{[(2S)-2-methylpyrrolidin-1-yl]methyl}-1,3-oxazol-2-yl)benzyl]-1H-benzimidazole]
The Ki of the first is higher: 50.1 to 100 nM for the first, at most 10 nM for the second.

CC1CCCN(Cc2coc(-c3ccc(Cn4cnc5ccccc54)cc3)n2)C1 (stereo not drawn) [Example 16] and CC1CCN(Cc2coc(-c3ccc(Cn4cnc5ccccc54)cc3)n2)CC1 [Example 17] cannot be ordered by Ki: at most 10 nM for the first, at most 10 nM for the second.

First: OC[C@@H]1CCCN1Cc1coc(-c2ccc(Cn3cnc4ccccc43)cc2)n1 [Example 18, [(2S)-1-({2-[4-(1H-benzimidazol-1-ylmethyl)phenyl]-1,3-oxazol-4-yl}methyl)pyrrolidin-2-yl]methanol]
Second: OC[C@@H]1CCCN1Cc1coc(-c2ccc(-n3cnc4ccccc43)cc2)n1 [Example 48, [(2S)-1-({2-[4-(1H-benzimidazol-1-yl)phenyl]-1,3-oxazol-4-yl}methyl)pyrrolidin-2-yl]methanol]
The Ki of the first is higher: 10.1 to 25 nM for the first, at most 10 nM for the second. The second binds more tightly here.

F[C@@H]1CCN(Cc2coc(-c3ccc(Cn4cnc5ccccc54)cc3)n2)C1 [Example 21, 1-[4-(4-{[(3R)-3-fluoropyrrolidin-1-yl]methyl}-1,3-oxazol-2-yl)benzyl]-1H-benzimidazole] and F[C@H]1CCN(Cc2coc(-c3ccc(Cn4cnc5ccccc54)cc3)n2)C1 [Example 22, 1-[4-(4-{[(3S)-3-fluoropyrrolidin-1-yl]methyl}-1,3-oxazol-2-yl)benzyl]-1H-benzimidazole] fall in the same range of Ki: 10.1 to 25 nM for the first, 10.1 to 25 nM for the second.

Compared with Cc1oc(-c2ccc(Cn3cnc4ccccc43)cc2)nc1CN1CCCC1 [Example 28, 1-{4-[5-methyl-4-(pyrrolidin-1-ylmethyl)-1,3-oxazol-2-yl]benzyl}-1H-benzimidazole], Brc1oc(-c2ccc(Cn3cnc4ccccc43)cc2)nc1CN1CCCC1 [Example 29, 1-{4-[5-bromo-4-(pyrrolidin-1-ylmethyl)-1,3-oxazol-2-yl]benzyl}-1H-benzimidazole] is higher in Ki: at most 10 nM for the first, 25.1 to 50 nM for the second. The first binds more tightly here.

c1ccc2c(c1)ncn2-c1ccc(-c2nc(CN3CCCC3)co2)cc1 [Example 36, 1-{4-[4-(pyrrolidin-1-ylmethyl)-1,3-oxazol-2-yl]phenyl}-1H-benzimidazole] and c1ccc2c(c1)ncn2-c1ccc(-c2nc(CN3CCCCC3)co2)cc1 [Example 37] cannot be ordered by Ki: at most 10 nM for the first, at most 10 nM for the second.

CN(C)Cc1coc(-c2ccc(-n3cnc4ccccc43)cc2)n1 [Example 38] and CCN(C)Cc1coc(-c2ccc(-n3cnc4ccccc43)cc2)n1 [Example 39] fall in the same range of Ki: 10.1 to 25 nM for the first, 10.1 to 25 nM for the second.

Compared with CCN(CC)Cc1coc(-c2ccc(-n3cnc4ccccc43)cc2)n1 [Example 42, N-({2-[4-(1H-benzimidazol-1-yl)phenyl]-1,3-oxazol-4-yl}methyl)-N-ethylethanamine], CC1CCCN1Cc1coc(-c2ccc(-n3cnc4ccccc43)cc2)n1 (stereo not drawn) [Example 43, 1-(4-{4-[(2-methylpyrrolidin-1-yl)methyl]-1,3-oxazol-2-yl}phenyl)-1H-benzimidazole] is lower in Ki: 25.1 to 50 nM for the first, 10.1 to 25 nM for the second.

CC1CCCCN1Cc1coc(-c2ccc(-n3cnc4ccccc43)cc2)n1 (stereo not drawn) [Example 45, 1-(4-{4-[(2-methylpiperidin-1-yl)methyl]-1,3-oxazol-2-yl}phenyl)-1H-benzimidazole] and CC1CCCN(Cc2coc(-c3ccc(-n4cnc5ccccc54)cc3)n2)C1 (stereo not drawn) [Example 46, 1-(4-{4-[(3-methylpiperidin-1-yl)methyl]-1,3-oxazol-2-yl}phenyl)-1H-benzimidazole] cannot be ordered by Ki: at most 10 nM for the first, at most 10 nM for the second.

CC1CCN(Cc2coc(-c3ccc(-n4cnc5ccccc54)cc3)n2)CC1 [Example 47, 1-(4-{4-[(4-methylpiperidin-1-yl)methyl]-1,3-oxazol-2-yl}phenyl)-1H-benzimidazole] and Cn1c(-c2ccc(-c3nc(CN4CCCC4)co3)cc2)nc2ccccc21 [Example 51, 1-methyl-2-{4-[4-(pyrrolidin-1-ylmethyl)-1,3-oxazol-2-yl]phenyl}-1H-benzimidazole] cannot be ordered by Ki: at most 10 nM for the first, at most 10 nM for the second.

First: Cn1c(-c2ccc(-c3nc(CN4CCCCC4)co3)cc2)nc2ccccc21 [Example 52, 1-methyl-2-{4-[4-(piperidin-1-ylmethyl)-1,3-oxazol-2-yl]phenyl}-1H-benzimidazole]
Second: c1ccc2c(c1)nc(-c1ccc(-c3nc(CN4CCCC4)co3)cc1)n2CC1CCC1 [Example 58, 1-(cyclobutylmethyl)-2-{4-[4-(pyrrolidin-1-ylmethyl)-1,3-oxazol-2-yl]phenyl}-1H-benzimidazole]
The Ki of the first is lower: at most 10 nM for the first, 10.1 to 25 nM for the second.

First: CCN(C)Cc1coc(-c2ccc(-c3nc4ccccc4n3C)cc2)n1 [Example 53, N-methyl-N-({2-[4-(1-methyl-1H-benzimidazol-2-yl)phenyl]-1,3-oxazol-4-yl}methyl)ethanamine]
Second: CN(C)Cc1coc(-c2ccc(-c3nc4ccccc4n3C)cc2)n1 [Example 54, N,N-dimethyl-1-{2-[4-(1-methyl-1H-benzimidazol-2-yl)phenyl]-1,3-oxazol-4-yl}methanamine]
The Ki of the first is lower: at most 10 nM for the first, 10.1 to 25 nM for the second. The first binds more tightly here.

Compared with C[C@H]1CCCN1Cc1coc(-c2ccc(-c3nc4ccccc4n3CC3CCC3)cc2)n1 [Example 59, 1-(cyclobutylmethyl)-2-[4-(4-{[(2S)-2-methylpyrrolidin-1-yl]methyl}-1,3-oxazol-2-yl)phenyl]-1H-benzimidazole], C[C@H]1CCCN1Cc1coc(-c2ccc(-c3nc4ccccc4n3CCC3CCCCC3)cc2)n1 [Example 61] is higher in Ki: at most 10 nM for the first, 25.1 to 50 nM for the second. The first binds more tightly here.

c1ccc2c(c1)nc(-c1ccc(-c3nc(CN4CCCC4)co3)cc1)n2CCC1CCCCC1 [Example 60, 1-(2-cyclohexylethyl)-2-{4-[4-(pyrrolidin-1-ylmethyl)-1,3-oxazol-2-yl]phenyl}-1H-benzimidazole] gave a Ki of 50.1 to 100 nM.
